The record followed here is ChEMBL document CHEMBL1201862, “PubChem BioAssay data set” (2004).

The target of assay [1] is Peroxisome proliferator-activated receptor gamma/Nuclear receptor coactivator 3 (Homo sapiens, UniProt P37231). The class given is functional.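 Further: agonist potency for raising coactivator recruitment to the receptor.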
Assay [2] addresses Peroxisome proliferator-activated receptor gamma/Nuclear receptor coactivator 2 (Homo sapiens, UniProt P37231). The class given is functional.
For assay [3], the target named is Eukaryotic translation initiation factor 4E (Mus musculus, UniProt P63073). The assay is described as follows: blockers of eIF4G binding by eIF4E – biochemical, TR-FRET, dose response (AID 855).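 Further: potency for disrupting eIF4E binding to eIF4GI seen as loss of FRET.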 The class given is functional. In general terms: TR-FRET usually uses a lanthanide donor and a delayed reading to cut background.
Assay [4] addresses Peroxisome proliferator-activated receptor gamma/Nuclear receptor coactivator 1 (Homo sapiens, UniProt P37231). The class given is functional.
Assay [5] concerns the target T1, Calpain-2 catalytic subunit (Sus scrofa, UniProt P43367).
T1 sequence (P43367 whole entry): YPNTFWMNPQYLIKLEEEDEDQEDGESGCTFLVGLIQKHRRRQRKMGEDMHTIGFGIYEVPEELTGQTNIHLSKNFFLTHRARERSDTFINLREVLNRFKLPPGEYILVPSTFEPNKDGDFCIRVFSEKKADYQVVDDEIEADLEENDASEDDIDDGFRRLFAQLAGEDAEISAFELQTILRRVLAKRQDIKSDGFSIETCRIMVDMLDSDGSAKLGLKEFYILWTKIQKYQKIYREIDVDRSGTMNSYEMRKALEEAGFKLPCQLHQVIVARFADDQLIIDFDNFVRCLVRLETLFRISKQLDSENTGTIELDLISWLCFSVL
Kind of assay: m-calpain protease blockers, concentration series – biochemical, fluorogenic peptide substrate, dose response (AID 1420). The class given is functional.

Another assay concerns J774.A1. The assay is described as follows: Confirmation of image-based Screening Assay for Inhibitors of Phagocytosis. [Related pubchem assays (depositor defined):AID1029, AID1643]. The class given is functional, cell-based. Conditions: Mus musculus.
A short description of assay [6]: HEK-293T viability loss after treatment – luminescence, T-cell screen hits, cytotoxicity control for TCR NF-kB inhibitor project, dose response (AID 489026).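 Further: cells exposed to compound about 14 hours before the viability readout.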 The class given is functional, cell-based.
For assay [7], the target named is Dual specificity protein phosphatase 3 (Homo sapiens, UniProt P51452). The assay is described as follows: Dose Response Confirmation of compounds that inhibit VHR1 in Fluorescent Assay. [Related pubchem assays (depositor defined):AID1661, AID1878]. The class given is functional.
In assay [8] the target is Tyrosine-protein phosphatase non-receptor type 7 (Homo sapiens, UniProt P35236). Kind of assay: Dose Response confirmation of compounds that inhibit HePTP. [Related pubchem assays (depositor defined):AID1059, AID1661, AID2085]. The class given is functional.
A further assay deals with T2, Leucine aminopeptidase (Plasmodium falciparum 3D7, UniProt Q8IL11).
T2 sequence (Q8IL11 whole entry): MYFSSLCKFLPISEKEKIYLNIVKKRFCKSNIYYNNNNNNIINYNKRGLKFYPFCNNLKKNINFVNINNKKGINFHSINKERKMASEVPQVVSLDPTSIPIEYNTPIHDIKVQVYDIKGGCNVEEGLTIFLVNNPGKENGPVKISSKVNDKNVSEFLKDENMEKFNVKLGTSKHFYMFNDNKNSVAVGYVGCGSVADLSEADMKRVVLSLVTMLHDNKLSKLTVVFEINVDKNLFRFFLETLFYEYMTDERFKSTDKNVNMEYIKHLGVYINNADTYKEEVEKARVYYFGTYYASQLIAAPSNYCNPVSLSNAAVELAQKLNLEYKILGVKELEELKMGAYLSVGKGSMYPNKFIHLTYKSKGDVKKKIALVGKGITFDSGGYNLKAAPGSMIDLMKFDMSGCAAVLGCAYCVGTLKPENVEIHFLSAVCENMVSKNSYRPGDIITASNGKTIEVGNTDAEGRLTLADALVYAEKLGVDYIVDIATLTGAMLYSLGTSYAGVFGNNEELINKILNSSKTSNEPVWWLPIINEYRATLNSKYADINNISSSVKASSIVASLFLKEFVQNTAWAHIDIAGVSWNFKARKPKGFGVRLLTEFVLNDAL
The assay is described as follows: P. falciparum M17LAP inhibitors, primary screen, biochemical, fluorogenic H-Leu-NHMec substrate, 1536-well (AID 1619). The class given is functional.

A further assay deals with T3, Aminopeptidase N (Plasmodium falciparum FcB1/Columbia, UniProt O96935).
T3 sequence (O96935 whole entry): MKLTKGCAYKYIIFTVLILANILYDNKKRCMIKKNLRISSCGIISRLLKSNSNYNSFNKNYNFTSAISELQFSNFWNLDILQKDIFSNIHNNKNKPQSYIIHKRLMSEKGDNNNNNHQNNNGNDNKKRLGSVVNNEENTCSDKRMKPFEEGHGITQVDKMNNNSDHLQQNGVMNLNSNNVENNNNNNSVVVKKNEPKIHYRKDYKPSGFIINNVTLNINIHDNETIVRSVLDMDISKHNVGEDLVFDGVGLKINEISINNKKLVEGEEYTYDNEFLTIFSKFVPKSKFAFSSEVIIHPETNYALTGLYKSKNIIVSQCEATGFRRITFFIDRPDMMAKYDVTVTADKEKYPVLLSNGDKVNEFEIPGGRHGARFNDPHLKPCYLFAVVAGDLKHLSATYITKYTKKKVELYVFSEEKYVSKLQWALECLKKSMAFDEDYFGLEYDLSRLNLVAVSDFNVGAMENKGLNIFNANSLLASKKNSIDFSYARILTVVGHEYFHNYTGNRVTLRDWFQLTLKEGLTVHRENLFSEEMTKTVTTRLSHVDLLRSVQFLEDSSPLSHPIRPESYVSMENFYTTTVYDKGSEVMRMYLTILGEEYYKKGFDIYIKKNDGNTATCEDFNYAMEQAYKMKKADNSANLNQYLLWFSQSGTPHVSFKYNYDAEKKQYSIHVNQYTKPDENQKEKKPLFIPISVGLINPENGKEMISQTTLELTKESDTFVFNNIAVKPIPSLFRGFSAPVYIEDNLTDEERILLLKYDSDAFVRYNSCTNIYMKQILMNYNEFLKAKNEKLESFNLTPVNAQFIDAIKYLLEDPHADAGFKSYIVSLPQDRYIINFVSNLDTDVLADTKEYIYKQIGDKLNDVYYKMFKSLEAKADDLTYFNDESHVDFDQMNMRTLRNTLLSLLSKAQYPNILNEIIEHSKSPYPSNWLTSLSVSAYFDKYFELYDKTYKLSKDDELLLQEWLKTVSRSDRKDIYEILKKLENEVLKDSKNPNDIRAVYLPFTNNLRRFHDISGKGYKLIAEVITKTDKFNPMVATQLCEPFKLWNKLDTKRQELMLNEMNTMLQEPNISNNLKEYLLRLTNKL
Kind of assay: malaria alanyl aminopeptidase activity blockers – biochemical, fluorogenic H-Leu-NHMec substrate, 1536-well (AID 1445). More on the design: species or system Plasmodium falciparum 3D7, 3D7.

Assay [9] in a line: microbe, parasite or virus in culture. The class given is functional. The conditions noted are these: Mycobacterium tuberculosis.
Assay [10] concerns the target DNA dC->dU-editing enzyme APOBEC-3A (Homo sapiens, UniProt P31941). The assay is described as follows: A3A deaminase inhibition for selectivity – biochemical, dose response (AID 504722). The class given is functional.
In assay [11] the target is DNA dC->dU-editing enzyme APOBEC-3G (Homo sapiens, UniProt Q9HC16). Kind of assay: Dose Response confirmation of small molecule APOBEC3G DNA Deaminase Inhibitors via a fluorescence-based single-stranded DNA deaminase assay. [Related pubchem assays (depositor defined):AID493012, AID493028]. The class given is functional.
The nature of assay [12]: NIH/3T3 cell viability loss – mouse embryonic fibroblasts, dry powder, set 2, cytotoxicity control, dose response (AID 493247). The class given is functional, cell-based. The conditions noted are these: Fibroblast.
Another assay has as its system Trypanosoma cruzi. The assay is described as follows: anti-trypanosomal activity in host cells – cell-based, plate reader, dry powder, set 3, dose response (AID 493197). The class given is functional.

Active and inactive are the calls of the source.

Chain of Peroxisome proliferator-activated receptor gamma/Nuclear receptor coactivator 3 (P37231 whole entry): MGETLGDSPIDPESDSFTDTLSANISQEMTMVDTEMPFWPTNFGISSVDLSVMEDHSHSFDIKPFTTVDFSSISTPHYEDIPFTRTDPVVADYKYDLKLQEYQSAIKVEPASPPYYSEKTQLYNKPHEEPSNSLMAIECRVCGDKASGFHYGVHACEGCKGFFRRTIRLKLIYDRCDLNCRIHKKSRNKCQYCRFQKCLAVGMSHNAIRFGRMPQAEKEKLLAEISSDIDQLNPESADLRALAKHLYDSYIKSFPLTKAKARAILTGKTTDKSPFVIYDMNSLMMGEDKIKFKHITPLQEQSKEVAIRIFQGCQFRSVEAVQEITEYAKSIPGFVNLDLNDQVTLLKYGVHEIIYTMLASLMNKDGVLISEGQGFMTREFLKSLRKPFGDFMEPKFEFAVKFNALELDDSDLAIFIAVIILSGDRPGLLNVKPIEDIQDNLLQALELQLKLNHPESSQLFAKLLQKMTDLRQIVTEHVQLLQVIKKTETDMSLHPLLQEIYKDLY
Chain of Peroxisome proliferator-activated receptor gamma/Nuclear receptor coactivator 3 (Q9Y6Q9 whole entry, further chain): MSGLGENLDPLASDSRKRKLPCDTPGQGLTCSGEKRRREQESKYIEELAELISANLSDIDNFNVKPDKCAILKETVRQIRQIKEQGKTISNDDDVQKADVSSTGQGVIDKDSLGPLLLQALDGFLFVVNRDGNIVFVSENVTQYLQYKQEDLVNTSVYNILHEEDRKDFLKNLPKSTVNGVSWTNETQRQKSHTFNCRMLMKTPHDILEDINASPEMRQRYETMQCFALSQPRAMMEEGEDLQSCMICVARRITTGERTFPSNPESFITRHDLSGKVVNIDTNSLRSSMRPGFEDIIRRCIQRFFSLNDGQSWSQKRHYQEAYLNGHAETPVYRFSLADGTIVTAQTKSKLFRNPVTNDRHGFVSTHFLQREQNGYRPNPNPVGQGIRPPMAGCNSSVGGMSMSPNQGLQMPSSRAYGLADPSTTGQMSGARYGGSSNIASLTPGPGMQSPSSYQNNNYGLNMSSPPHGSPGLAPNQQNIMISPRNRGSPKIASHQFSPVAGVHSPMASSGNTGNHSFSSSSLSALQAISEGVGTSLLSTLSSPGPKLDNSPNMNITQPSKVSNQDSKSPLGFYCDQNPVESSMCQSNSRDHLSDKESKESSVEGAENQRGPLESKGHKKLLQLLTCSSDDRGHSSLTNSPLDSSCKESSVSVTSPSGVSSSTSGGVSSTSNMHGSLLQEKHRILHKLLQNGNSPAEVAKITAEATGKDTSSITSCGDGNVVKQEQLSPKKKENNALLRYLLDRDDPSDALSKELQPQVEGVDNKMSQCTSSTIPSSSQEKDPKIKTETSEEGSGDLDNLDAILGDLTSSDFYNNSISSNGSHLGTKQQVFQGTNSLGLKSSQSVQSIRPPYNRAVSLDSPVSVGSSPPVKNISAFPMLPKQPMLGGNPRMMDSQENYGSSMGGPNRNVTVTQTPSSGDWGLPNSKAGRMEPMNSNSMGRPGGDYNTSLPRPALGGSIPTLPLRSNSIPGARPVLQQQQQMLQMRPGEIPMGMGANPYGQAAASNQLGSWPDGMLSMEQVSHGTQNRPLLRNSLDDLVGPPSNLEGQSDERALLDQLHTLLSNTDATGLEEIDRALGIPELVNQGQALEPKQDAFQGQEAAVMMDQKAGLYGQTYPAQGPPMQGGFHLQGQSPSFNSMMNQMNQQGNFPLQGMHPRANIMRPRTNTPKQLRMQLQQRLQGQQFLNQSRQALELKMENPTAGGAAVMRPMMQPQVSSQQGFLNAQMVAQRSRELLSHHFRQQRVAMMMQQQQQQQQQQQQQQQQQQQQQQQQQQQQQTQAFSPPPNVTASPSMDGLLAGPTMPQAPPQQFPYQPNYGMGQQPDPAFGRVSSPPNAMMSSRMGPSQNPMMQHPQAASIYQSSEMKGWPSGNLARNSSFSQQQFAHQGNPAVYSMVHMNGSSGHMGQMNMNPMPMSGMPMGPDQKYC
Chain of Peroxisome proliferator-activated receptor gamma/Nuclear receptor coactivator 2 (P37231 whole entry): as the sequence (P37231 whole entry) above
Chain of Peroxisome proliferator-activated receptor gamma/Nuclear receptor coactivator 2 (Q15596 whole entry, further chain): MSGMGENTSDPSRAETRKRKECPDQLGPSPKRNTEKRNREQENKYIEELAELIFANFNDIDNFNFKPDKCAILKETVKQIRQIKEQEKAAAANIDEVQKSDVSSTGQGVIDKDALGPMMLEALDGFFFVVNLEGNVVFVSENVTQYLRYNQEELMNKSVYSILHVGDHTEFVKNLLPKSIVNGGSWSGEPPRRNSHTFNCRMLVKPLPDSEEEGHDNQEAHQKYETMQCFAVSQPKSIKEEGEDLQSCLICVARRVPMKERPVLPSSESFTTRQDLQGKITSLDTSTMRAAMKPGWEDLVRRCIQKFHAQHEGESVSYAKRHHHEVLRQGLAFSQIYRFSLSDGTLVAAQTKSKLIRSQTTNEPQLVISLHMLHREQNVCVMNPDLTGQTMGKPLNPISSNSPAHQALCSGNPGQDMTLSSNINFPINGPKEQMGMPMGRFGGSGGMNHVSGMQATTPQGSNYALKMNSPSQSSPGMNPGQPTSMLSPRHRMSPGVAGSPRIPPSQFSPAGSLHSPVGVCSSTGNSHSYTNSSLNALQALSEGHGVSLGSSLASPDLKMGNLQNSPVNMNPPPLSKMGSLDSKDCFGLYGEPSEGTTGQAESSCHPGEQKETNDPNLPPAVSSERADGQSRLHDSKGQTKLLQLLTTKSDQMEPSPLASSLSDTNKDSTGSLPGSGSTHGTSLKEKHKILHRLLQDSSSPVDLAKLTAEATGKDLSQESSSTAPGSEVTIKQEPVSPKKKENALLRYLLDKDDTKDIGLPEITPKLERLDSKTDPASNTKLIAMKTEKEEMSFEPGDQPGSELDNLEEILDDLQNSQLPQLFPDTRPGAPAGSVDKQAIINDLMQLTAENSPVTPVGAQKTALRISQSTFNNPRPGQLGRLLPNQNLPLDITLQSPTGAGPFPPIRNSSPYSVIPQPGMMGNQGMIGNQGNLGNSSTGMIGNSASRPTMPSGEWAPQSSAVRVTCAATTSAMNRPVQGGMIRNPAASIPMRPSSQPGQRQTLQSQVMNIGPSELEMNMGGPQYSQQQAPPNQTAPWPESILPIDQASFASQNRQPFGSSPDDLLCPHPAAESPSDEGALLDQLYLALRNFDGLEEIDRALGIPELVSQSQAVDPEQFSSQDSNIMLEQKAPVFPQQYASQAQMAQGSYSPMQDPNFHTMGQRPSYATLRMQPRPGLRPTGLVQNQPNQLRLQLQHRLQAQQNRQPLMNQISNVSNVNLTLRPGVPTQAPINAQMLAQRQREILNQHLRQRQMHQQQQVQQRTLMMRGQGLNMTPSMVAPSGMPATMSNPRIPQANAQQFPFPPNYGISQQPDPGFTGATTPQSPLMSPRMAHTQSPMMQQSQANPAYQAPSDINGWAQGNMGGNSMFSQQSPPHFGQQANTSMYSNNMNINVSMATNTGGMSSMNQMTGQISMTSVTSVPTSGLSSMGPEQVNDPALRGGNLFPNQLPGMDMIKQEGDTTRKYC
Chain of DNA dC->dU-editing enzyme APOBEC-3G (Q9HC16 whole entry): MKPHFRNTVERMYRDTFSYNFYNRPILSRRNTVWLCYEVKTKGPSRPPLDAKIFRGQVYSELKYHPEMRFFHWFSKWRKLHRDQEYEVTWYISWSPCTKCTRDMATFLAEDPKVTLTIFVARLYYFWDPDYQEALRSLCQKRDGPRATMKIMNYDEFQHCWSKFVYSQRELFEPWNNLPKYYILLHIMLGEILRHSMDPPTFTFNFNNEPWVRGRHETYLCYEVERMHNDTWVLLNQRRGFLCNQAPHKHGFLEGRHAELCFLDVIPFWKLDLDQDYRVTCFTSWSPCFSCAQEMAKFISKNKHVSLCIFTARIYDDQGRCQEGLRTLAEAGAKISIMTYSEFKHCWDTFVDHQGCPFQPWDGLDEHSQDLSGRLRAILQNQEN
Chain of Dual specificity protein phosphatase 3 (P51452 whole entry): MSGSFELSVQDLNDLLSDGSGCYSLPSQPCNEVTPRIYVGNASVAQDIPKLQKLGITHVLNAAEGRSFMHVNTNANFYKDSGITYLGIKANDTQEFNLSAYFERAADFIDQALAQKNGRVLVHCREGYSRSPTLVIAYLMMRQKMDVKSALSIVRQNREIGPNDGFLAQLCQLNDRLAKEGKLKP
Chain of Eukaryotic translation initiation factor 4E (P63073 whole entry): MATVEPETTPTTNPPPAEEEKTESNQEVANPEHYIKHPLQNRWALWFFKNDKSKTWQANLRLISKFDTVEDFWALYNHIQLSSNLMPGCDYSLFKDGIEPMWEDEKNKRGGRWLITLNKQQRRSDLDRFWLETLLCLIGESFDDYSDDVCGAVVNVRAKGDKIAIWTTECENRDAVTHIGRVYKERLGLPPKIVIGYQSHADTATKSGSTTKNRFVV
Chain of Tyrosine-protein phosphatase non-receptor type 7 (P35236 whole entry): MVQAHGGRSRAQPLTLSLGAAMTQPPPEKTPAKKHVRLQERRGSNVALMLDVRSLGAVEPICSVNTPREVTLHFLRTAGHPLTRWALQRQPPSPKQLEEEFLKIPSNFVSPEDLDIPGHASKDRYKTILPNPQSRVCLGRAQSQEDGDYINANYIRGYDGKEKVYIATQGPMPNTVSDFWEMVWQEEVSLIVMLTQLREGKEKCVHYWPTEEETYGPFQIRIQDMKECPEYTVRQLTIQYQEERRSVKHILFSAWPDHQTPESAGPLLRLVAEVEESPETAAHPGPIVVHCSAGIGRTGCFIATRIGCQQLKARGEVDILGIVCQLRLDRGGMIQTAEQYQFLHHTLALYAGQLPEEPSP

With `NS(=O)(=O)c1ccc(NC(=S)NCc2ccc(Cl)cc2)cc1`, the EC50 in assay [1], in assay [2] and in [4] was > 79.4 µM (not active) each time. Moreover, the IC50 was > 64 µM (inactive) in [3] and 9.36 µM (not active) in [5].

`CCOc1ccc2c(c1)sc(N)[n+]2Cc1cc(C)cc2cccnc12`: the IC50 in the assay with J774.A1 is 0.229 µM (active); in [6] it was > 80 µM (inactive).

`Cc1csc(NC(=O)CCCC(=O)O)c1-c1nc2ccccc2s1`: the IC50 in [7] was 2.67 µM (active); in [8], 3.28 µM (active); on Leucine aminopeptidase it was 35.4 µM (active); on Aminopeptidase N, 11.2 µM (active). Moreover, the CC50 in assay [9] was > 40 µM (active).

For `Cc1ccc(-n2c(-c3ccco3)n[nH]c2=S)cc1`, the IC50 was > 100 µM (inactive) in assay [10] and 4.57 µM (active) in assay [11].

Regarding `O=C(CCC(=O)Nc1ccccc1)N/N=C/c1ccc([N+](=O)[O-])o1`, the figures for the AC50 (in [12]; in the assay on Trypanosoma cruzi) were 5.35 µM (active) and 0.125 µM (active), respectively.

Usually EC50 stands for the concentration that produces a half-maximal response. High values mean weaker potency, low ones greater potency. What is called IC50 is the midpoint of a concentration-inhibition curve. Broadly, the AC50 is the midpoint of the concentration-response curve, whichever way the signal moves.
